PubChem BioAssay AID248 (DTP/NCI, 2004)
Several values for one entry are separate records, joined by “and”; a condition that tells them apart may be missing. Identical values can stand only once. Inconclusive results and toxic doses are left out. Rule as the data show it: active = T/C of 150% or more; inactive = T/C below 125%.

System: L1210 leukemia ip in BDF1 mice, survival T/C
Test: NCI In Vivo Anticancer Drug Screen. Data for tumor model L1210 Leukemia (intraperitoneal) in B6D2F1 (BDF1) mice
Conditions: endpoint: mean survival time, higher = longer survival
Outline: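 Value reflects the ratio of survival in compound-treated mice to survival in vehicle-treated controls, with both groups carrying the same transplanted tumor.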

[1] = dose: 100.0 mg/kg/injection, schedule: Q01DX009 (ip), vehicle: saline with Tween-80
[2] = dose: 100.0 mg/kg/injection, schedule: Q04DX003 (ip), vehicle: saline
[3] = dose: 200.0 mg/kg/injection, schedule: Q01DX009 (ip), vehicle: saline with Tween-80
[4] = dose: 200.0 mg/kg/injection, schedule: Q04DX003 (ip), vehicle: saline
[5] = dose: 400.0 mg/kg/injection, schedule: Q04DX003 (ip), vehicle: saline
[6] = dose: 100.0 mg/kg/injection, schedule: Q01DX009 (ip), vehicle: Klucel (hydroxypropylcellulose) (HPC)
[7] = dose: 75.0 mg/kg/injection, schedule: Q01DX001 (ip), vehicle: saline
[8] = dose: 150.0 mg/kg/injection, schedule: Q01DX001 (ip), vehicle: saline
[9] = dose: 200.0 mg/kg/injection, schedule: Q01DX009 (ip), vehicle: Klucel (hydroxypropylcellulose) (HPC)
[10] = dose: 400.0 mg/kg/injection, schedule: Q01DX009 (ip), vehicle: Klucel (hydroxypropylcellulose) (HPC)
[11] = dose: 100.0 mg/kg/injection, schedule: Q04DX002 (ip), vehicle: saline with Tween-80
[12] = dose: 400.0 mg/kg/injection, schedule: Q01DX009 (ip), vehicle: saline with Tween-80
[13] = dose: 400.0 mg/kg/injection, schedule: Q04DX002 (ip), vehicle: saline with Tween-80
[14] = dose: 100.0 mg/kg/injection, schedule: Q04DX003 (ip), vehicle: saline with Tween-80
[15] = dose: 200.0 mg/kg/injection, schedule: Q04DX003 (ip), vehicle: saline with Tween-80
[16] = dose: 400.0 mg/kg/injection, schedule: Q04DX003 (ip), vehicle: saline with Tween-80

Measured: T/C

CC(C)CN(CCCCO)CC(C)C
inactive: [1] 95 % of control | [2] 100 % of control | [3] 103 % of control | [4] 100 % of control | [5] 100 % of control

c1ccc(C(C2=NCCN2)c2ccccc2)cc1
inactive: dose: 25.0 mg/kg/injection, schedule: Q04DX003 (ip), vehicle: Klucel (hydroxypropylcellulose) (HPC) 101 % of control | dose: 50.0 mg/kg/injection, schedule: Q01DX009 (ip), vehicle: Klucel (hydroxypropylcellulose) (HPC) 102 % of control | dose: 50.0 mg/kg/injection, schedule: Q04DX003 (ip), vehicle: Klucel (hydroxypropylcellulose) (HPC) 106 % of control | [6] 91 % of control | dose: 100.0 mg/kg/injection, schedule: Q04DX003 (ip), vehicle: Klucel (hydroxypropylcellulose) (HPC) 101 % of control and 103 % of control

CCCCNc1ccc(C(=O)OCCNC2CCCCC2)cc1
inactive: [7] 100 % of control | [8] 96 % of control

C=CCNC(=S)Nc1cccc(OC(=O)NC2CCCCC2)c1
inactive: [6] 103 % of control | [9] 105 % of control | [10] 97 % of control

CCC1C(CC(=O)O)=C(C)NC(C)=C1CC(=O)O
inactive: [6] 109 % of control | [9] 90 % of control

O=c1[nH]nc(-c2ccc(C(F)(F)F)cc2)s1
inactive: [7] 95 % of control | dose: 75.0 mg/kg/injection, schedule: Q04DX003 (ip), vehicle: saline 93 % of control | [8] 104 % of control | dose: 150.0 mg/kg/injection, schedule: Q04DX003 (ip), vehicle: saline 98 % of control | dose: 300.0 mg/kg/injection, schedule: Q01DX001 (ip), vehicle: saline 97 % of control | dose: 300.0 mg/kg/injection, schedule: Q04DX003 (ip), vehicle: saline 98 % of control

CCOC(=O)C1(C)CCN(C)C1=O (stereo not given)
inactive: dose: 100.0 mg/kg/injection, schedule: Q01DX001 (ip), vehicle: saline 96 % of control | dose: 200.0 mg/kg/injection, schedule: Q01DX001 (ip), vehicle: saline 96 % of control | dose: 400.0 mg/kg/injection, schedule: Q01DX001 (ip), vehicle: saline 96 % of control

CCOC(=O)/C=C(\C#N)CC(=O)OCC
inactive: dose: 50.0 mg/kg/injection, schedule: Q01DX005 (ip), vehicle: saline 102 % of control | dose: 100.0 mg/kg/injection, schedule: Q01DX005 (ip), vehicle: saline 102 % of control | dose: 200.0 mg/kg/injection, schedule: Q01DX005 (ip), vehicle: saline 96 % of control | dose: 400.0 mg/kg/injection, schedule: Q01DX005 (ip), vehicle: saline 94 % of control

CCOc1ccc(NC(=O)Oc2ccc(-c3ccccc3)cc2)cc1
inactive: dose: 100.0 mg/kg/injection, schedule: Q01DX001 (ip), vehicle: saline with Tween-80 93 % of control | [1] 100 % of control and 90 % of control | [11] 104 % of control and 106 % of control | dose: 200.0 mg/kg/injection, schedule: Q01DX001 (ip), vehicle: saline with Tween-80 91 % of control | [3] 87 % of control and 92 % of control | dose: 200.0 mg/kg/injection, schedule: Q04DX002 (ip), vehicle: saline with Tween-80 100 % of control and 101 % of control | dose: 400.0 mg/kg/injection, schedule: Q01DX001 (ip), vehicle: saline with Tween-80 89 % of control | [12] 97 % of control and 87 % of control | [13] 92 % of control

[N-]=[N+]=Nc1ccc2c(=O)c3ccccc3[nH]c2c1
inactive: dose: 100.0 mg/kg/injection, schedule: Q04DX003 (ip), vehicle: acetone 89 % of control | dose: 200.0 mg/kg/injection, schedule: Q04DX003 (ip), vehicle: acetone 98 % of control | dose: 400.0 mg/kg/injection, schedule: Q04DX003 (ip), vehicle: acetone 96 % of control

Cc1ccc(NC(=O)c2ccccc2Cl)cc1C
inactive: [1] 90 % of control | [3] 97 % of control | [12] 104 % of control

O=C(COc1cccc(Cl)c1)Nc1ccccc1S(=O)(=O)F
inactive: dose: 100.0 mg/kg/injection, schedule: Q04DX003 (ip), vehicle: other 89 % of control | dose: 200.0 mg/kg/injection, schedule: Q04DX003 (ip), vehicle: other 87 % of control | dose: 400.0 mg/kg/injection, schedule: Q04DX003 (ip), vehicle: other 98 % of control

Cc1cc(S(=O)(=O)O)c(N)cc1Cl
inactive: [14] 99 % of control | [15] 97 % of control | [16] 100 % of control

Oc1ccc(C=Nc2ccccc2N=Cc2ccc(O)c(O)c2)cc1O
inactive: [1] 105 % of control | [14] 100 % of control | [3] 100 % of control | [15] 96 % of control | [12] 100 % of control | [16] 91 % of control

NC(=S)N/N=C1/C(=O)c2cccc3cccc1c23
inactive: dose: 75.0 mg/kg/injection, schedule: Q01DX001 (ip), vehicle: other 96 % of control

O=c1c2[nH]c3cccc(Cl)c3c2cnn1-c1ccc(F)cc1
inactive: dose: 100.0 mg/kg/injection, schedule: Q01DX001 (ip), vehicle: Klucel (hydroxypropylcellulose) (HPC) 96 % of control | dose: 200.0 mg/kg/injection, schedule: Q01DX001 (ip), vehicle: Klucel (hydroxypropylcellulose) (HPC) 104 % of control | dose: 400.0 mg/kg/injection, schedule: Q01DX001 (ip), vehicle: Klucel (hydroxypropylcellulose) (HPC) 104 % of control

O=S(=O)(Nc1ccc(Br)c2ccccc12)c1ccccc1
inactive: dose: 25.0 mg/kg/injection, schedule: Q01DX001 (ip), vehicle: saline sonified 97 % of control | dose: 50.0 mg/kg/injection, schedule: Q01DX001 (ip), vehicle: saline sonified 92 % of control | dose: 100.0 mg/kg/injection, schedule: Q01DX001 (ip), vehicle: saline sonified 92 % of control

O/N=C(\c1ccccc1)C1C(/C(=N/O)c2ccccc2)C1c1ccccc1 (stereo not given)
inactive: [11] 88 % of control | [13] 88 % of control

O=C(C=P(c1ccccc1)(c1ccccc1)c1ccccc1)c1ccc(Br)cc1
inactive: dose: 50.0 mg/kg/injection, schedule: Q01DX001 (ip), vehicle: carboxymethylcellulose (CMC) 99 % of control | dose: 100.0 mg/kg/injection, schedule: Q01DX001 (ip), vehicle: carboxymethylcellulose (CMC) 99 % of control | dose: 200.0 mg/kg/injection, schedule: Q01DX001 (ip), vehicle: carboxymethylcellulose (CMC) 96 % of control | dose: 400.0 mg/kg/injection, schedule: Q01DX001 (ip), vehicle: carboxymethylcellulose (CMC) 99 % of control

NC(N)=Nc1ccc(C(=O)Oc2ccc([N+](=O)[O-])cc2CN2CCCCC2)cc1
inactive: dose: 0.5 mg/kg/injection, schedule: Q04DX003 (ip), vehicle: water 102 % of control | dose: 1.0 mg/kg/injection, schedule: Q04DX003 (ip), vehicle: water 110 % of control | dose: 2.0 mg/kg/injection, schedule: Q04DX003 (ip), vehicle: water 96 % of control | dose: 3.12 mg/kg/injection, schedule: Q01DX009 (ip), vehicle: water 93 % of control | dose: 3.12 mg/kg/injection, schedule: Q04DX003 (ip), vehicle: water 105 % of control | dose: 4.0 mg/kg/injection, schedule: Q04DX003 (ip), vehicle: water 102 % of control | dose: 6.25 mg/kg/injection, schedule: Q01DX009 (ip), vehicle: water 96 % of control | dose: 12.5 mg/kg/injection, schedule: Q01DX009 (ip), vehicle: water 101 % of control | dose: 12.5 mg/kg/injection, schedule: Q04DX003 (ip), vehicle: water 108 % of control

NC(=O)N/N=C/c1cccs1
inactive: dose: 25.0 mg/kg/injection, schedule: Q04DX003 (ip), vehicle: saline with Tween-80 95 % of control | dose: 50.0 mg/kg/injection, schedule: Q04DX003 (ip), vehicle: saline with Tween-80 103 % of control | [14] 106 % of control

[Cl][Ge]([c]1ccccc1)([c]1ccccc1)[c]1ccccc1
inactive: [6] 104 % of control | [9] 102 % of control | [10] 95 % of control

OC(c1ccccc1)(c1ccccc1)C1CC1c1ccncc1 (stereo not given)
inactive: dose: 25.0 mg/kg/injection, schedule: Q04DX003 (ip), vehicle: saline 107 % of control | dose: 50.0 mg/kg/injection, schedule: Q04DX003 (ip), vehicle: saline 104 % of control | [2] 98 % of control | [4] 98 % of control | [5] 91 % of control
